Data published in ChEMBL document CHEMBL2094269, “WEHI/Eskitis Trypanosoma b. brucei screening data”.
“And” between values parts separate entries of the source, which are not always exact repeats. Equal entries are not always repeated.

What follows are molecules tested on Trypanosoma brucei brucei (assay: microbe, parasite or virus in culture). Conditions: not given.
Assay type: functional, organism-based, STIB 795

IC50 | Structure (SMILES)
5.08 µM | COc1ccc(-c2nn(C3CC(=O)C4OCC3O4)c(=S)n2C)cc1OC (centres undefined)
4.75 µM | Cc1ccccc1-c1nnnn1C1CC(=O)C2OCC1O2 (centres undefined)
6.09 µM and 15.5 µM | CN(C)c1ccc(/C=C2\SC(=N)N(c3nccs3)C2=O)cc1

Same assay, conditions: Trypanosoma brucei, STIB 795

IC50 [µM] | Structure (SMILES)
> 10.4 | COc1ccccc1-c1nnc(Cc2ccc(F)cc2Cl)o1
> 10.4 | CCCC(=O)NC(c1ccc(SC)cc1)c1ccc2cccnc2c1O (centres undefined)
> 10.4 | C1CCC(Nc2nc3nonc3nc2NC2CCCCC2)CC1
> 10.4 | O=C(Cn1ncc(Cl)c(Cl)c1=O)c1ccccc1
> 10.4 | CCOC(=O)Cc1csc(NC(=S)NC(=O)C2CCCCC2)n1
> 10.4 | CC(=O)N1/C(=C/c2ccncc2)C(=O)c2ccccc21
> 10.4 | CCOc1ccc(C(=O)CC(c2ccccc2)C(C#N)C#N)cc1 (centres undefined)
> 10.4 | O=C1c2ccc(Cl)c3c(Cl)ccc(c23)C(=O)N1Nc1ccccc1
> 10.4 | CCc1c(C)nc(SCC#N)c(C#N)c1C
> 10.4 | CC(=O)C1=C(c2ccc(Br)cc2)C(=O)c2ccccc2C1=O
> 10.4 | COc1ccc(/C(N)=N/OC(=O)c2cccc(F)c2)cc1
> 10.4 | CC(C)CCn1c(C(C)N2CCCCC2)nc2ccccc21 (centres undefined)
> 10.4 | O=C(N/N=C/c1cc(Cl)ccc1O)c1ccccc1Br
> 10.4 | CCN1CCN(c2cc(C)c3cc(NC(=O)c4cccs4)ccc3n2)CC1
> 10.4 | OC(C#CCN1CCOCC1)(c1ccc(Cl)cc1)c1cccc(Cl)c1 (centres undefined)
> 10.4 | CC1CCN(S(=O)(=O)c2ccc3c4c2CC(=O)N4CC(C)S3)CC1 (centres undefined)
> 10.4 | C/C(=C\c1nsc(Nc2ccc(F)c(Cl)c2)n1)Nc1ccc(C)cc1
> 10.4 | CCOC(=O)c1c(N)sc2c(OCC)c(Br)ccc12
> 10.4 | CN(C)c1ccc(N=c2cc(-c3ccccc3)sc(-c3ccccc3)c2)cc1
> 10.4 | Oc1ccc(Br)c2ccc(/C=C/c3ccccc3)nc12
> 10.4 | N=C(Cc1cccc2ccccc12)NOC(=O)c1cccs1
> 10.4 | Oc1c(C(c2ccccn2)N2CCCCC2)cc(Cl)c2cccnc12 (centres undefined)
> 10.4 | O=c1c2ccccc2nc(SCc2cccnc2)n1Cc1ccco1
> 10.4 | COc1ccc(/C(C)=N\Nc2nnc(C)c(O)n2)cc1

IC50 [µM] | Structure (SMILES)
4.53 | COc1ccc(-c2nn(C3CC(=O)C4OCC3O4)c(=S)n2C)cc1OC (centres undefined)
> 10.4 | CSc1ccc(C(Nc2ccccn2)c2ccc3cccnc3c2O)cc1 (centres undefined)
> 10.4 | CCOC(=O)c1ccc(NC(=O)NC23CC4(C)CC(C)(CC(C)(C4)C2)C3)cc1
> 10.4 | Cc1occc1C(=O)O/N=C(\N)c1ccc(Cl)cc1
> 10.4 | CC1CCN(Cc2cc(CSc3ccccc3)c3cccnc3c2O)CC1
> 10.4 | Oc1ccc2ccccc2c1/N=N/c1nccs1
> 10.4 | CC1=NN(c2ccccc2)C(=O)/C1=C/c1ccc(Sc2ccc(Cl)cc2)o1
> 10.4 | CC(C)CCn1c(/C=N/Nc2nc3ccccc3[nH]2)nc2ccccc21
> 10.4 | COC(=O)c1ccc2c(c1)C(C)(C)C(/C=C/c1cccc(OC)c1OC)=[N+]2C
> 10.4 | O=C(Nc1cc(Cl)cc(Cl)c1)c1ccccn1
> 10.4 | OCCN1CCN(C2Cc3ccccc3Sc3cc(Cl)c(F)cc32)CC1 (centres undefined)
> 10.4 | C=C(CC(CN1CCOCC1)C(=O)c1ccccc1)C(=O)c1ccccc1 (centres undefined)
> 10.4 | COc1ccc(O)c(/C=N/NC(=O)c2nonc2C)c1
> 10.4 | CC(C)N1C/C(=C\c2cccc(Cl)c2)C(=O)/C(=C/c2cccc(Cl)c2)C1
> 10.4 | COc1ccc(/C(N)=N/OC(=O)c2ccc(C)c(C)c2)cc1
> 10.4 | Oc1ccc(CNc2ccccc2F)c2cccnc12
> 10.4 | COc1ccc(CC(=O)Nc2sc3c(c2C#N)CC(C)(C)NC3(C)C)cc1
> 10.4 | N=C(NOC(=O)c1ccoc1)c1ccc(Br)cc1
> 10.4 | Cc1ccc(S(=O)(=O)C(CC(=O)c2ccco2)c2ccc(Cl)cc2)cc1 (centres undefined)
> 10.4 | Cn1c(=O)cc(NNc2ccccc2)[nH]c1=O
> 10.4 | O=C(Nc1cccc(Cl)c1)C1CCN(c2ncc(-c3ccccc3)cn2)CC1
> 10.4 | Cc1occc1C(=O)N/N=C/c1ccc(-c2ccc(Cl)cc2Cl)o1
> 10.4 | NCC(OCc1ccc(-c2ccccc2)cc1)c1ccccc1 (centres undefined)
> 10.4 | CC(C)(C)c1ccc(C(=O)NNC(=O)c2cnccn2)cc1

IC50 [µM] | Structure (SMILES)
> 10.4 | COc1ccccc1-n1c(C)cc(/C=C2\C(=N)N3C(C)=CSC3=NC2=O)c1C
> 10.4 | O=c1oc2ccccc2n1Cc1c(F)cccc1Cl
> 10.4 | Cn1c(SC2=CS(=O)(=O)c3ccccc32)nc2ccccc21
> 10.4 | CCCCNc1ccc2cccc(O)c2n1
> 10.4 | C(=N\n1cnnc1)/c1cccc(OCCOc2ccccc2)c1
> 10.4 | CC(Nc1cccc2ccccc12)C(=O)N/N=C/c1cccc(O)c1 (centres undefined)
> 10.4 | O=C(O)CSc1cc(NS(=O)(=O)c2ccccc2)c2ccccc2c1O
> 10.4 | CN(C)CCC1=Cc2cc(Cl)ccc2Sc2ccccc21
> 10.4 | O=C(N/N=C/c1ccc(-c2ccc(Br)cc2)o1)c1ccco1
> 10.4 | CCN1CCC(N(Cc2cccs2)C(=O)Nc2ccc(C)c(Cl)c2)CC1
> 10.4 | CSc1ccc(C2N=C(c3ccc(C)cc3)CC(c3ccccc3O)N2)cc1 (centres undefined)
> 10.4 | COc1cc(C(=O)O/N=C(\N)c2ccncc2)cc(OC)c1OC
> 10.4 | Clc1ccc2nc(CCc3ccccc3)nc(NCCN3CCCCC3)c2c1
> 10.4 | O=C1c2ccccc2C2=NS(=O)(=O)c3cccc1c32
> 10.4 | COc1ccc(/C(N)=N/OC(=O)c2ccccc2F)cc1OC
> 10.4 | Cc1ccccc1C(=O)/C(C#N)=N/Nc1c(C)n(C)n(-c2ccccc2)c1=O
> 10.4 | O=C1N=C(Nc2cccc(Cl)c2Cl)S/C1=C\c1ccc(O)c(O)c1
> 10.4 | O=c1c(-c2ccccc2)c(-c2ccccc2)[nH]c2ccccc12
> 10.4 | CC12C(=O)N(c3ccc(Cl)cc3O)C(=O)C1C1c3ccccc3C2c2ccccc21 (centres undefined)
> 10.4 | CCOc1ccc(C(=O)N/N=C(\c2ccccc2)c2ccccn2)cc1
> 10.4 | CC(C)CCOc1ccc(/C=N/NC(=O)C23CC4CC(C)(CC(C)(C4)C2)C3)cc1
> 10.4 | O=C(Cc1cccs1)Nc1ccc(C(=O)Nc2nccs2)cc1
> 10.4 | c1ccc(Nc2n[n+](-c3ccccc3)nc3ccccc23)cc1
> 10.4 | O=C(NCC1CCCO1)C(=O)N/N=C/c1c(O)ccc2ccccc12 (centres undefined)

IC50 [µM] | Structure (SMILES)
> 10.4 | N#C/C(=C\Nc1cc(Cl)ccc1O)c1nc2cc(Cl)ccc2o1
> 10.4 | Oc1cccc2ccc(Nc3ccccc3)nc12
> 10.4 | Cc1ccc(NC(=O)C/C(N)=N/OC(=O)c2ccccc2Cl)cc1
> 10.4 | CN(C)CC(C(=O)c1ccccc1)c1ccccc1 (centres undefined)
> 10.4 | Oc1ccc(CN2CCC(Cc3ccccc3)CC2)c2cccnc12
> 10.4 | N=C(NOC(=O)c1cccc(Br)c1)c1ccncc1
> 10.4 | COc1cccc(C(=O)Nc2ccc3nc(N4CCOCC4)cc(C)c3c2)c1
> 10.4 | CC(C)(C)c1ccc(C(OC(CN)c2ccccc2)c2ccc(Cl)cc2)cc1 (centres undefined)
> 10.4 | COc1ccc(OC)c(/C=C/C(=O)Nc2ccc(C(=O)OCCC(C)C)cc2)c1
> 10.4 | C=CCN1C(=O)c2ccccc2Sc2ccc(C(=O)NCc3ccco3)cc21
> 10.4 | CC1(C)CC(NC(=O)c2ccc(C#Cc3ccccc3)cc2)CC(C)(C)N1
> 10.4 | Cc1c(-c2cc(Cl)cc(-c3ccc(F)cc3)c2)ccc2nc(N)nc(N)c12
> 10.4 | O=C(CC(SCc1ccco1)c1ccc(C(F)(F)F)cc1)c1ccco1 (centres undefined)
> 10.4 | COC(=O)c1cc(NC(=O)Nc2ccc3snnc3c2)cc(C(=O)OC)c1
> 10.4 | OC(CNCCc1ccccc1)Cn1c2c(c3ccccc31)CCCC2 (centres undefined)
> 10.4 | CCOC(=O)c1ccc(Nc2ncnc3c2cnn3-c2ccc(C)cc2C)cc1
> 10.4 | COc1ccc(/N=N/c2ccc(O)c3ncccc23)cc1
> 10.4 | CC1CCc2nc3ccccc3c(N)c2C1 (centres undefined)
> 10.4 | COc1nc(Nc2nc(O)c3ccccc3n2)nc2ccc(C)cc12
> 10.4 | CC(C)=CCC1(C)C(=O)N(c2ccccc2)c2ccccc21 (centres undefined)
> 10.4 | CC(=O)N(C)c1ccc(/N=C2/C(=O)Nc3cc(Br)c(C)cc32)cc1
> 10.4 | COCc1nc2ccccc2n1CCCCOc1cccc(C)c1
> 10.4 | CCOC(=O)c1c(C)[nH]c2c1-c1cc(Br)ccc1C(=O)C2=O
> 10.4 | CCN(CC)c1cc(C)c2cc(NC(=O)/C=C/c3ccc(OC)cc3)ccc2n1

IC50 [µM] | Structure (SMILES)
> 10.4 | COCC(=O)N/N=C/c1ccc(Sc2cccc3cccnc23)o1
> 10.4 | CCCCN(CCCC)CCC12CC3CC(CC(C3)C1)C2
> 10.4 | CCN(CC(O)COCCC12CC3CC(CC(C3)C1)C2)C1CCCCC1 (centres undefined)
> 10.4 | CCOC(=O)C1CCCN(C2=NC(=O)/C(=C/c3ccc(O)c(OC)c3)S2)C1 (centres undefined)
> 10.4 | N=C(N)Nc1nc(-c2ccccc2)c2cc(Cl)ccc2n1
> 10.4 | Cc1ccc(C(=N)NOC(=O)c2cccs2)cc1
> 10.4 | CN(C)CCCC1Sc2ccccc2Sc2ccccc21 (centres undefined)
> 10.4 | COc1ccc(S(=O)(=O)C(CC(=O)c2ccccc2)c2ccccc2)cc1 (centres undefined)
> 10.4 | COc1ccc(C(=O)CC(SCCO)c2ccc(F)cc2)cc1OC (centres undefined)
> 10.4 | N#Cc1nc2c(c(N3CCNCC3)c1-c1ccccc1)CCCC2
> 10.4 | Cc1nc(SCC(=O)NC2CCCCC2)n(-c2ccccc2)c1C
> 10.4 | CCOC(=O)Cc1csc(NC(=O)c2ccccc2F)n1
> 10.4 | COc1cccc(Nc2nc(N)c(C(=O)c3ccccc3F)s2)c1
> 10.4 | O=C1C(=O)c2c(C(=O)c3cccs3)coc2-c2ccccc21
> 10.4 | CC(C)(C)C(=O)NN=c1c2ccccc2[nH]c2ccccc12
> 10.4 | CCOC(=O)C1=C(C)NC(SCC(=O)c2ccccc2)=C(C#N)C1CC(C)C (centres undefined)
> 10.4 | Cc1c(-c2cc(Cl)cc3c2OC(C)(C)C3=O)ccc(N)c1C#N
4.58 | Cc1ccccc1-c1nnnn1C1CC(=O)C2OCC1O2 (centres undefined)
> 10.4 | C=CCc1cccc(/C=N/NC(=O)c2cccs2)c1O
> 10.4 | NC(=S)N/N=C/c1sc(=O)[nH]c1Cl
> 10.4 | CCCCN(CCCC)CCNC(=O)Nc1ccc(Cl)cc1
> 10.4 | CCc1cc(-c2n[nH]c(C)c2-c2nc3ccccc3s2)c(O)cc1O
> 10.4 | CN(C)c1ccc(C(Nc2nccs2)c2ccc3cccnc3c2O)cc1 (centres undefined)
> 10.4 | N#Cc1c(Cl)ncc2c1Nc1ccccc1C2Sc1ccccc1 (centres undefined)

Structure (SMILES) | IC50 [µM]
OC(c1ccc(Cl)s1)(c1ccc(Cl)s1)C1CN2CCC1CC2 (centres undefined) | > 10.4
